Key:
Assay in all cases: In vitro MIC, 2010 surveillance isolates
MR CoNS = assay type: cell-based, Coagulase-Negative Staphylococcus
E. coli ESBL+ = assay type: cell-based, Escherichia coli; details: for % R (resistance): Eucast breakpoints
Enterobacter spp = assay type: cell-based; details: for % R (resistance): Eucast breakpoints
MSSA = assay type: cell-based
E. faecalis VS = assay type: cell-based
Acinetobacter spp = assay type: cell-based
K. pneumoniae ESBL− = assay type: cell-based, Klebsiella pneumoniae
E. faecium VNS = assay type: cell-based; details: for % R (resistance): Eucast breakpoints
E. cloacae CeftazS = assay type: cell-based; details: for % R (resistance): Eucast breakpoints
K. oxytoca = assay type: cell-based; details: for % R (resistance): Eucast breakpoints
E. coli ESBL− = assay type: cell-based, Escherichia coli; details: for % R (resistance): Eucast breakpoints
E. cloacae CeftazR = assay type: cell-based; details: for % R (resistance): Eucast breakpoints
K. pneumoniae ESBL+ = assay type: cell-based, Klebsiella pneumoniae; details: for % R (resistance): Eucast breakpoints
A. baumanii = assay type: cell-based
MS CoNS = assay type: cell-based, Coagulase-Negative Staphylococcus
E. faecium VS = assay type: cell-based; details: for % R (resistance): Eucast breakpoints
E. faecalis VNS = assay type: cell-based
MRSA = assay type: cell-based

amoxicillin-clavulanic acid [Amox/clav]
% R (resistance) (MR CoNS; Asia/Pac, Eucast breakpoints): 100% | MIC90 (MR CoNS; Asia/Pac, N=77): > 8 µg/mL | % R (resistance) (MR CoNS; Europe, Eucast breakpoints): 100% | MIC90 (MR CoNS; Europe, N=510): > 8 µg/mL | % R (resistance) (MR CoNS; L. Amer, CLSI breakpoints): 100% | MIC90 (MR CoNS; L. Amer, N=301): > 8 µg/mL | % R (resistance) (MR CoNS; N America, CLSI breakpoints): 100% | MIC90 (MR CoNS; N America, N=461): 8 µg/mL | % R (resistance) (E. coli ESBL+; Asia/Pac): 39.3% | MIC90 (E. coli ESBL+; Asia/Pac, N=219): > 8 µg/mL | % R (resistance) (E. coli ESBL+; Europe): 70.1% | MIC90 (E. coli ESBL+; Europe, N=274): > 8 µg/mL | MIC90 (E. coli ESBL+; L. Amer, N=168): > 8 µg/mL | MIC90 (E. coli ESBL+; N America, N=134): > 8 µg/mL | % R (resistance) (Enterobacter spp; Asia/Pac): 96.2% | MIC90 (Enterobacter spp; Asia/Pac, N=52): > 8 µg/mL | % R (resistance) (Enterobacter spp; Europe): 91.5% | MIC90 (Enterobacter spp; Europe, N=82): > 8 µg/mL | MIC90 (Enterobacter spp; L. Amer, N=42): > 8 µg/mL | MIC90 (Enterobacter spp; N America, N=101): > 8 µg/mL | % R (resistance) (MSSA; Asia/Pac, Eucast breakpoints): 0% | MIC90 (MSSA; Asia/Pac, N=641): ≤ 1 µg/mL | % R (resistance) (MSSA; Europe, Eucast breakpoints): 0% | MIC90 (MSSA; Europe, N=2109): ≤ 1 µg/mL | % R (resistance) (MSSA; L. Amer, CLSI breakpoints): 0% | MIC90 (MSSA; L. Amer, N=590): ≤ | % R (resistance) (MSSA; N America, CLSI breakpoints): 0.1% | MIC90 (MSSA; N America, N=2373): ≤ 1 µg/mL | % R (resistance) (E. faecalis VS; Asia/Pac, Eucast breakpoints): 0% | MIC90 (E. faecalis VS; Asia/Pac, N=214): ≤ 1 µg/mL | % R (resistance) (E. faecalis VS; Europe, Eucast breakpoints): 0% | MIC90 (E. faecalis VS; Europe, N=669): ≤ 1 µg/mL | % R (resistance) (E. faecalis VS; L. Amer, CLSI breakpoints): 0% | MIC90 (E. faecalis VS; L. Amer, N=290): ≤ 1 µg/mL | % R (resistance) (E. faecalis VS; N America, CLSI breakpoints): 0% | MIC90 (E. faecalis VS; N America, N=863): ≤ 1 µg/mL | MIC90 (Acinetobacter spp; Europe, N=43): > 8 µg/mL | MIC90 (Acinetobacter spp; N America, N=42): > 8 µg/mL | % R (resistance) (K. pneumoniae ESBL−; Asia/Pac, Eucast breakpoints): 3.7% | MIC90 (K. pneumoniae ESBL−; Asia/Pac, N=189): 8 µg/mL | % R (resistance) (K. pneumoniae ESBL−; Europe, Eucast breakpoints): 7.2% | MIC90 (K. pneumoniae ESBL−; Europe, N=361): 8 µg/mL | MIC90 (K. pneumoniae ESBL−; L. Amer, N=160): 8 µg/mL | % R (resistance) (K. pneumoniae ESBL−; N America, CLSI breakpoints): 0% | MIC90 (K. pneumoniae ESBL−; N America, N=671): 4 µg/mL | % R (resistance) (E. faecium VNS; Asia/Pac): 100% | MIC90 (E. faecium VNS; Asia/Pac, N=24): > 8 µg/mL | % R (resistance) (E. faecium VNS; Europe): 100% | MIC90 (E. faecium VNS; Europe, N=71): > 8 µg/mL | MIC90 (E. faecium VNS; L. Amer, N=41): > 8 µg/mL | MIC90 (E. faecium VNS; N America, N=478): > 8 µg/mL | % R (resistance) (E. cloacae CeftazS; Asia/Pac): 94% | MIC90 (E. cloacae CeftazS; Asia/Pac, N=100): > 8 µg/mL | % R (resistance) (E. cloacae CeftazS; Europe): 92.3% | MIC90 (E. cloacae CeftazS; Europe, N=183): > 8 µg/mL | MIC90 (E. cloacae CeftazS; L. Amer, N=57): > 8 µg/mL | MIC90 (E. cloacae CeftazS; N America, N=210): > 8 µg/mL | % R (resistance) (K. oxytoca; Asia/Pac): 23.5% | MIC90 (K. oxytoca; Asia/Pac, N=17): > 8 µg/mL | % R (resistance) (K. oxytoca; Europe): 14.6% | MIC90 (K. oxytoca; Europe, N=158): > 8 µg/mL | MIC90 (K. oxytoca; L. Amer, N=25): > 8 µg/mL | MIC90 (K. oxytoca; N America, N=177): > 8 µg/mL | % R (resistance) (E. coli ESBL−; Asia/Pac): 14.2% | MIC90 (E. coli ESBL−; Asia/Pac, N=282): > 8 µg/mL | % R (resistance) (E. coli ESBL−; Europe): 17.7% | MIC90 (E. coli ESBL−; Europe, N=1533): > 8 µg/mL | MIC90 (E. coli ESBL−; L. Amer, N=389): > 8 µg/mL | MIC90 (E. coli ESBL−; N America, N=1172): > 8 µg/mL | % R (resistance) (E. cloacae CeftazR; Asia/Pac): 100% | MIC90 (E. cloacae CeftazR; Asia/Pac, N=63): > 8 µg/mL | % R (resistance) (E. cloacae CeftazR; Europe): 100% | MIC90 (E. cloacae CeftazR; Europe, N=72): > 8 µg/mL | MIC90 (E. cloacae CeftazR; L. Amer, N=42): > 8 µg/mL | MIC90 (E. cloacae CeftazR; N America, N=77): > 8 µg/mL | % R (resistance) (K. pneumoniae ESBL+; Asia/Pac): 72.6% | MIC90 (K. pneumoniae ESBL+; Asia/Pac, N=124): > 8 µg/mL | % R (resistance) (K. pneumoniae ESBL+; Europe): 84.1% | MIC90 (K. pneumoniae ESBL+; Europe, N=151): > 8 µg/mL | MIC90 (K. pneumoniae ESBL+; L. Amer, N=209): > 8 µg/mL | MIC90 (K. pneumoniae ESBL+; N America, N=108): > 8 µg/mL | MIC90 (A. baumanii; Asia/Pac, N=275): > 8 µg/mL | MIC90 (A. baumanii; Europe, N=145): > 8 µg/mL | MIC90 (A. baumanii; L. Amer, N=275): > 8 µg/mL | MIC90 (A. baumanii; N America, N=154): > 8 µg/mL | % R (resistance) (MS CoNS; Asia/Pac, Eucast breakpoints): 0% | MIC90 (MS CoNS; Asia/Pac, N=18): ≤ 1 µg/mL | % R (resistance) (MS CoNS; Europe, Eucast breakpoints): 0% | MIC90 (MS CoNS; Europe, N=185): ≤ 1 µg/mL | % R (resistance) (MS CoNS; L. Amer, CLSI breakpoints): 0% | MIC90 (MS CoNS; L. Amer, N=67): ≤ 1 µg/mL | % R (resistance) (MS CoNS; N America, CLSI breakpoints): 0% | MIC90 (MS CoNS; N America, N=191): ≤ 1 µg/mL | % R (resistance) (E. faecium VS; Asia/Pac): 91.5% | MIC90 (E. faecium VS; Asia/Pac, N=106): > 8 µg/mL | % R (resistance) (E. faecium VS; Europe): 93.4% | MIC90 (E. faecium VS; Europe, N=303): > 8 µg/mL | MIC90 (E. faecium VS; L. Amer, N=51): > 8 µg/mL | MIC90 (E. faecium VS; N America, N=115): > 8 µg/mL | range of MICs (N <10, shown instead of MIC90) (E. faecalis VNS; Asia/Pac, N=1): ≤1 | % R (resistance) (E. faecalis VNS; Europe, Eucast breakpoints): 0% | range of MICs (N <10, shown instead of MIC90) (E. faecalis VNS; Europe, N=8): ≤1-2 | % R (resistance) (E. faecalis VNS; L. Amer, CLSI breakpoints): 0% | range of MICs (N <10, shown instead of MIC90) (E. faecalis VNS; L. Amer, N=7): ≤1-2 | % R (resistance) (E. faecalis VNS; N America, CLSI breakpoints): 0% | MIC90 (E. faecalis VNS; N America, N=38): ≤ 1 µg/mL | % R (resistance) (MRSA; Asia/Pac, Eucast breakpoints): 100% | MIC90 (MRSA; Asia/Pac, N=428): > 8 µg/mL | % R (resistance) (MRSA; Europe, Eucast breakpoints): 100% | MIC90 (MRSA; Europe, N=750): > 8 µg/mL | % R (resistance) (MRSA; L. Amer, CLSI breakpoints): 100% | MIC90 (MRSA; L. Amer, N=506): > 8 µg/mL | % R (resistance) (MRSA; N America, CLSI breakpoints): 100% | MIC90 (MRSA; N America, N=2508): > 8 µg/mL

Reference: patent publication US10238670B2, “9-aminomethyl minocycline compounds and methods of use thereof in urinary tract infection (UTI) treatment” (Paratek Pharmaceuticals, Inc., priority 2016, dated 2019)
